Laboratory results as given in patent publication US9161936B2, “Laquinimod for treatment of GABA mediated disorders” (TEVA PHARMACEUTICAL INDUSTRIES, LTD., priority 2012, dated 2015).

How the values were obtained:
cannabinoid CB1 receptor = cannabinoid CB1 receptor (Mus musculus, UniProt P47746); test: Effect of HU210 on sIPSC frequency in striatal neurons (CB1 sensitivity of GABA synapses); details: for sIPSC frequency respect to pre-drug values: HU210 1 μM
Description: Recordings were performed between 25 and 35 dpi. Mice were killed by cervical dislocation under halothane anaesthesia, and corticostriatal coronal slices (200 μm) were prepared from fresh tissue blocks of the brain with the use of a vibratome (Centonze et al., 2007, 2009; Rossi et al., 2010a,b). A single slice was then transferred to a recording chamber and submerged in a continuously flowing artificial CSF (ACSF) (34° C., 2-3 ml/min) gassed with 95% O2-5% CO2. The composition of the control ACSF was (in mM): 126 NaCl, 2.5 KCl, 1.2 MgCl2, 1.2 NaH2PO4, 2.4 CaCl2, 11 Glucose, 25 NaHCO3. Recording pipettes were advanced towards individual striatal cells in the slice under positive pressure and visual control (WinVision 2000, Delta Sistemi, Italy) and, on contact, tight GΩ seals were made by applying negative pressure. The membrane patch was then ruptured by suction and membrane current and potential monitored using an Axopatch 1D patch clamp amplifier (Axon Instruments, Foster City, Calif., USA). Whole-cell access resistances measured in voltage clamp were in the range of 5-20 MΩ. Whole-cell patch clamp recordings were made with borosilicate glass pipettes (1.8 mm o.d.; 2-3 MΩ), in voltage-clamp mode, at the holding potential (HP) of −80 mV. […] Conversely, to detect spontaneous GABAAmediated inhibitory postsynaptic currents (sIPSCs), intraelectrode solution had the following composition (mM): CsCl (110), K+-gluconate (30), ethylene glycol-bis(β-aminoethyl ether)-N,N,N′,N′-tetra-acetic acid (EGTA; 1.1), HEPES (10), CaCl2 (0.1), Mg-ATP (4), Na-GTP (0.3). MK-801 (30 μM) and CNQX (10 μM) were added to the external solution to block, respectively, NMDA and nonNMDA glutamate receptors. Synaptic events were stored by using P-CLAMP (Axon Instruments) and analyzed off line on a personal computer with Mini Analysis 5.1 (Synaptosoft, Leonia, N.J., USA) software. The detection threshold of spontaneous IPSCs and EPSCs was set at twice the baseline noise. The fact that no false events would be identified was confirmed by visual inspection for each experiment. Offline analysis was performed on spontaneous and miniature synaptic events recorded during fixed time epochs (3-5 min, 3-6 samplings), sampled every 5 or 10 minutes. […] For kinetic analysis, events with peak amplitude between 10 and 50 pA were grouped, aligned by half-rise time, normalized by peak amplitude. In each cell, the events were averaged to obtain rise times, decay times, and half widths (Centonze et al., 2009; Rossi et al., 2010a,b). […]
For data presented as mean±SE, n indicates the number of cells. One to six cells per animal were recorded. […] Multiple comparisons were analysed by one-way ANOVA followed by Tukey's HSD test. Comparisons between two groups were analysed by paired or unpaired Student's t-test. […]

[1] = test system: glutamate-mediated sEPSCs in control neurons; test: Bath application of LQ on corticostriatal slices of wild type mice, sEPSCs; assay type: cell-based, mouse
[2] = test system: GABAA-mediated sIPSCs in control neurons; test: Bath application of LQ on corticostriatal slices of wild type mice, sIPSCs; assay type: cell-based, mouse
[3] = background statement; cited from earlier work
EAE mice = test: EAE induction and disease evaluation, preventive daily s.c. LQ; assay type: in vivo, mouse; details: for mice that developed the disease (incidence): 0-26 d.p.i., 15 mice; for maximum disease score: score 0-5
Description: Female C57BL/6 mice at 6-8 weeks of age were purchased from Charles River (Calco, Milan, Italy) and housed in pathogen-free conditions. All procedures involving animals were performed according to the guidelines of the San Raffaele Scientific Institute Institutional Animal Care and Use Committee.
EAE was induced by immunization with 3 subcutaneous injection of 100 μl each, containing a total of 200 μg of myelin oligodendrocyte glycoprotein (MOG) peptide 35-55 (Multiple Peptide System) in incomplete Freund's adjuvant and 8 mg/ml of Mycobacterium tuberculosis (strain H37Ra; Difco). Pertussis toxin (Sigma) (500 ng) was injected on the day of the immunization and again two days later. Body weight and clinical score (0=healthy; 1=limp tail; 2=ataxia and/or paresis of hindlimbs; 3=paralysis of hindlimbs and/or paresis of forelimbs; 4=tetraparalysis; 5=moribund or death) were recorded daily.
EAE mice were treated once daily by subcutaneous (s.c.) injection of LQ (supplied by Teva Pharmaceutical Industries, Netanya, Israel) (thereafter referred as LQ-EAE). LQ was administered at different doses (from 1 to 25 mg/kg) starting the same day of immunization up to 26 days post immunization (d.p.i.). Sham treated EAE mice (thereafter referred as untreated-EAE) and healthy control mice (thereafter referred as HC) were used as controls. Statistical analysis was performed using the unpaired Student's t-test.

spinal cord of EAE mice = test: Histological evaluation of spinal cord of EAE mice; assay type: in vivo, mouse
Description: At least 5 mice per group were transcardially perfused through the left cardiac ventricle with saline, plus EDTA 0.5 M for 5-10 min followed by fixation with cold 4% paraformaldehyde (PFA) (Sigma, St Louis, Mo.) in 0.1 M phosphate buffer (pH 7.4). Subsequently, spinal cords and brains were carefully dissected out and post-fixed in 4% PFA for 3-4 h and processed for paraffin embedding. The quantification of neurological damage was performed on 5 μm paraffin CNS sections obtained from HC, LQ-EAE mice, and untreated-EAE mice. Three different staining were used to detect inflammatory infiltrates (H&E), demyelination (Luxol fast blue) and axonal damage (Bielshowsky). Immunohistochemistry for CD3 (pan-T cell marker, Serotec Ltd, Oxford, UK), and BS-I isolectin B4 (biotinilated from Sigma, St Louis, Mo.) was performed to investigate T cells and macrophages within the inflammatory cellular infiltrates, respectively. […] Neuropathological findings were quantified on an average of 18-20 complete cross-sections of spinal cord per mouse taken at 8 different levels of the spinal cord. The number of perivascular inflammatory infiltrates were calculated and expressed as the numbers of inflammatory infiltrates per mm^2, demyelinated areas and axonal loss were expressed as percentage of damaged area per mm2. The number of T cells and macrophages lining within the subarachnoid space or infiltrating the CNS parenchyma was calculated and expressed as the number of cells per mm2. An Olympus microscope for the acquisitions of pictures was used. Statistical analysis was performed using the unpaired Student's t-test.

[4] = systemically administered (Brück et al., 2011); cited from earlier work
aEAE model = details: shown in U.S. Pat. No. 6,077,851; cited from earlier work
[5] = mouse, in vivo, sc, 25 mg/kg
[6] = test system: glutamate-mediated sEPSCs in striatal neurons; test: Whole-cell patch clamp of sEPSCs in striatal neurons of LQ-treated EAE mice; assay type: in vivo, mouse; details: LQ-EAE mice 25 mg/kg
[7] = test system: GABAA-mediated sIPSCs in striatal neurons; test: Whole-cell patch clamp of sIPSCs in striatal neurons of LQ-treated EAE mice; assay type: in vivo, mouse; details: LQ-EAE mice 25 mg/kg, n=20
[8] = LQ 1 μM bath application, control neurons
[9] = LQ 1 μM, 12 minutes, control neurons
[10] = LQ-EAE mice vs untreated-EAE mice
[11] = s.c. LQ vs untreated-EAE mice, spinal cord sections

cannabinoid CB1 receptor, sequence (P47746 whole entry): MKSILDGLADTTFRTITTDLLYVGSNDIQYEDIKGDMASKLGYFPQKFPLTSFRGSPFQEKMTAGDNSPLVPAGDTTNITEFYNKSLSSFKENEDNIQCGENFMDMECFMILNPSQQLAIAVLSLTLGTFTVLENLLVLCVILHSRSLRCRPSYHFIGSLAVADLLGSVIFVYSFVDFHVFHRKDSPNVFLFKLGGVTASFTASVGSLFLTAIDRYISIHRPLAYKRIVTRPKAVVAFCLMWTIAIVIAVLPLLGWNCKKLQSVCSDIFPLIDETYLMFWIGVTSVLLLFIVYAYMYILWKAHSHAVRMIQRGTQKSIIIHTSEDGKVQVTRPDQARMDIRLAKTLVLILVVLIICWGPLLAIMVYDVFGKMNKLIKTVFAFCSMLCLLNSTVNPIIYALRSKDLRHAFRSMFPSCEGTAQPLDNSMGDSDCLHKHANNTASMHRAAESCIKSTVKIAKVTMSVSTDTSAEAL

## CCCCCCC(C)(C)c1cc(O)c2c(c1)OC(C)(C)[C@@H]1CC=C(CO)C[C@@H]21 [HU210]
Cannabinoid CB1 receptor; 10 min, control slices, n=8
  sIPSC frequency respect to pre-drug values: 76±3%
Cannabinoid CB1 receptor; striatal neurons from LQ-EAE mice (25 mg/kg), n=10
  sIPSC frequency respect to pre-drug values: 75±3%
Cannabinoid CB1 receptor; striatal neurons from untreated EAE mice, n=10
  sIPSC frequency respect to pre-drug values: 101±3%

## CCN(C(=O)c1c(O)c2c(Cl)cccc2n(C)c1=O)c1ccccc1 [LQ, N-ethyl-N-phenyl-1,2-dihydro-4-hydroxy-5-chloro-1-methyl-2-oxoquinoline-3-carboxamide]
[1]; [8]
  sEPSC amplitude: failed to alter
  sEPSC frequency: failed to alter
[1]; [9]
  sEPSC decay time compared to pre-drug values: 101±2%
  sEPSC rise time compared to pre-drug values: 99±1%
[1]; LQ 10-30 μM bath application, control neurons, n=10, p<0.01
  sEPSC amplitude: reducing
[1]; Mus musculus, Neuron, dose-response curve, bath application, control neurons, read-out: EC50 of LQ-induced decrease of sEPSC amplitude
  EC50: 4.5 µM
[1]; highest concentration of LQ, n=7, p<0.05
  sEPSC frequency respect to pre-drug values: 83±2.7%
[2]; LQ 1 μM bath application
  sIPSC amplitude: failed to alter
  sIPSC frequency: failed to alter
[2]; LQ 1 μM, 12 minutes
  sIPSC decay time compared to pre-drug values: 98±3%
  sIPSC rise time compared to pre-drug values: 101±2%
[2]; LQ 10-30 μM bath application, n=8, p<0.01
  sIPSC frequency: significantly increased
[2]; Mus musculus, Neuron, dose-response curve, bath application, read-out: EC50 of LQ-induced increase of sIPSC frequency
  EC50: 4.3 µM
[3]
  oral bioavailability: high
EAE mice; 1 mg/kg LQ s.c. daily, untreated-EAE 15/15
  mice that developed the disease (incidence): 86.6%
EAE mice; 1 mg/kg LQ s.c. daily, sham 3.5
  maximum disease score: 3.5
EAE mice; 1 mg/kg LQ s.c. daily, untreated EAE 27.5
  cumulative score (0-26 dpi): 27.3
EAE mice; 1 mg/kg LQ s.c. daily, untreated-EAE 11.9 (±2.33)
  mean disease onset: 11.9 (±2.47)
EAE mice; 5 mg/kg LQ s.c. daily
  cumulative score (0-26 dpi): 21.5
  mean disease onset: 14.6 (±4.29)
  mice that developed the disease (incidence): 80%
  maximum disease score: 3
EAE mice; 25 mg/kg LQ s.c. daily
  cumulative score (0-26 dpi): 21.3
  mice that developed the disease (incidence): 40%
  maximum disease score: 1.5
EAE mice; preventive treatment 0-26 dpi, daily s.c. 1-25 mg/kg, dose-dependent
  suppression of EAE: significantly suppresses
EAE mice; printed "the mg/kg LQ-EAE mice" (dose figure missing), s.c. daily
  mean disease onset: 13.5 (±2.43)
Spinal cord of EAE mice; [10]
  CD3+ T cells: significant reduction
  IB4+ macrophages: significant reduction
Spinal cord of EAE mice; [11]
  axonal damage (percentage over total section area): significantly reduces
  inflammation (perivascular infiltrates per section): significantly reduces
  myelin loss (demyelination, percentage over total section area): significantly reduces
[4]
  crossing of the blood brain barrier: able to cross the blood brain barrier
aEAE model
  efficacy in the acute experimental autoimmune encephalomyelitis (aEAE) model: effective
Cannabinoid CB1 receptor; prophylactic LQ 25 mg/kg in EAE mice
  effect of CB1 receptor agonist HU210 on sIPSCs after LQ treatment: completely restored
[5]
  CNS concentration: 0.3 to 1 µM
[6]; 25-35 dpi, n=20, untreated-EAE 5.4±0.4, HC 3.4±0.2
  sEPSC decay time: 4.2 ± 0.3 ms
[6]; n=20, untreated-EAE 4.0±0.2, HC 2.7±0.2
  sEPSC frequency: 3.4±0.4 Hz
[6]; n=20, untreated-EAE 6.4±0.4, HC 4.0±0.3
  sEPSC half-width: 5.0 ± 0.3 ms
[6]; untreated-EAE 1.05±0.1, HC 1.03±0.1
  sEPSC rise time: 0.98 ± 0.1 ms
[6]; untreated-EAE 11.1±0.8, HC 12.0±1.0
  sEPSC amplitude: 12.2±1.1 pA
[7]; untreated-EAE 0.8±0.1, HC 1.7±0.1
  sIPSC frequency: 2.0±0.2 Hz
[7]; untreated-EAE 20±1.5, HC 32±1.3
  sIPSC amplitude: 29±1.1 pA

## N#Cc1cc2[nH]c(=O)c(=O)[nH]c2cc1[N+](=O)[O-] [CNQX, reference compound]
[1]; CNQX 10 μM, n=5
  blockade of sEPSCs recorded in the presence of LQ: fully blocked
